Measured values published in US20250268931A1, “TRANSCRIPTIONAL INHIBITOR FOR IMMUNE-RELATED GENE” (The University of Tokyo, priority 2022, published 2025).

Columns and labels:
IFN-β, IL-6 and TNF-α [1] = assay: Cytokine protein expression in peritoneal macrophages treated with LNP-mRNA encoding ovalbumin (ELISA); format: cell-based, mice; settings: 6 μM, LNP-mRNA (OVA) 0.5 μg/mL 20 to 24 hours
Protocol: Peritoneal macrophages were harvested from wild-type mice, and were then seeded on a 96-well plate at a cell density of 2.5×10^5 cells/well, followed by culturing for 2 hours. Thereafter, the cultured cells were washed twice with PBS. Subsequently, IRF-PIPA 3 was suspended in 10% FBS-RPMI or D-MEM to a final concentration of 6 μM, and was then added to the wells. After completion of the culture for 16 hours, an mRNA vaccine was added to the cultured cells to a final concentration of 0.5 μg/mL, and the obtained mixture was then cultured for 20 to 24 hours. Thereafter, the culture supernatant was recovered, and each protein concentration of IFN-β, IL-6 or TNF-α was then measured by ELISA.
(§1) 2×10^4 Raw264.7 cells were seeded on a plate, and were then treated with IRF-PIPA 1, IRF-PIPA 2, IRF-PIPA 3 or IRF-PIPA 4 for 24 hours. Thereafter, the cells were stimulated with LPS (Lipopolysaccharide, SIGMA-ALDRICH) for 16 hours, and the culture supernatant was then recovered. The concentration of cytokine in the culture supernatant was measured using ELISA kit (R&D SYSTEMS) according to the standard protocols. The culture supernatant was diluted with 1% BSA-PBS, as necessary, and was then analyzed. 2.5×10^5 Mouse peritoneal macrophages were seeded on a plate, and were then treated with IRF-PIPA 3 for 16 or 24 hours. […] The concentration of cytokine in the culture supernatant was measured using ELISA kit (R&D SYSTEMS) according to the same standard protocols. On the other hand, the concentration of cytokine in mouse plasma was measured by administering 400 μg/mouse IRF-PIPA 3 into the abdominal cavity of wild-type mice, then administering 250 μg of Poly(I:C) into the same abdominal cavity 24 hours after the IRF-PIPA 3 administration, then collecting blood further 2 hours after the Poly(I:C) administration, and then measuring the cytokine concentration in the plasma using ELISA kit (R&D SYSTEMS) according to standard protocols.

[2] = molecular target: DNA sequence (GAAAGTG C GAAAGTG C GAAAGTG C: SEQ ID No: 28); assay: Binding to target DNA sequence, Octet K2; settings: Octet K2, 10 to 320 nM, binding and dissociation 60 seconds each, biotin-labeled target sequence
Protocol: In order to verify the cytotoxic activity of IRF-PIPA 3, dsDNA concentration (left view in the figure) and LDH concentration (right view in the figure) in the culture supernatant were measured. The same experiment as that in FIG. 2 was carried out, and the culture supernatant was recovered. A lysate obtained by mixing 2.5×10^5 peritoneal macrophages with 90 μL of 10% FBS-RPMI or D-MEM medium and 10 μL of Lysis Buffer, and then disrupting the cells, was used as a positive control. […] Using Octet K2, the binding of each concentration of IRF-PIPA 3 shown in the figure and a target DNA sequence was analyzed. After mixing a PIPA solution with target DNA, the binding of the two substances was measured for 60 seconds. […] From changes in the binding and dissociation at each concentration over time, a Kd value was calculated as a dissociation constant indicating a binding force. The analysis was performed using Octet K2 (ForteBio) according to standard protocols. A streptavidin-conjugated sensor (ForteBio) was used, and a biotin-labeled target sequence (FASMAC) was allowed to bind to the sensor. Further, according to standard protocols, the binding of 10 to 320 nM IRF-PIPA 3 and the target sequence, and dissociation thereof were analyzed for 60 seconds each.

IFN-β, IL-6 and TNF-α [3] = assay: Cytokine concentration in culture supernatant of Poly(I:C)-stimulated peritoneal macrophages (ELISA); format: cell-based, mice; settings: 3 or 10 μM 24 h, Poly(I:C) 1 μg/mL 16 h
Protocol: Peritoneal macrophages were harvested from wild-type mice, and were then seeded on a 96-well plate at a cell density of 2.5×10^5 cells/well, followed by culturing for 2 hours. Thereafter, the cultured cells were washed twice with PBS. Subsequently, IRF-PIPA 3 was suspended in 10% FBS-RPMI or D-MEM to a final concentration of 3 or 10 µM, and was then added to the wells. After completion of the culture for 24 hours, Poly(I:C) was added to the cultured cells to a final concentration of 1 μg/mL, and the obtained mixture was then cultured for 16 hours. The supernatant was recovered, and the concentrations of IFN-β, IL-6, and TNF-α were then measured by ELISA.
Mouse peritoneal macrophages were harvested from 6-week-old CL57B/6 mice (CLEA Japan, Inc.) by peritoneal lavage using 7 mL of PBS (Nacalai Tesque), and the cells adhered to the culture plate by culture for 2 hours were used in experiments. The culture was carried out using an RPMI or D-MEM medium (Nacalai Tesque) containing 10% FBS (SIGMA-ALDRICH) and Penicillin-Streptomycin mixed solution (Nacalai Tesque). The CL57B/6 mice were bred in an SPF environment.
as §1, with “Thereafter, the cells were stimulated with LPS (Lipopolysaccharide, SIGMA-ALDRICH) for 16 hours, and the culture supernatant was then recovered.” left out, “analyzed.” for “analyzed. 2.5×10^5 Mouse peritoneal macrophages were seeded on a plate, and were then treated with IRF-PIPA 3 for 16 or 24 hours.”

[4] = tested on: Ifnb1, Il6, and Tnf genes; assay: In vivo relative mRNA expression in peritoneal macrophages after Poly(I:C) (qRT-PCR); design: species or system mice; settings: 400 μg/mouse i.p., Poly(I:C) 250 μg/mouse i.p. 3 h later, peritoneal macrophages 2 h later
Protocol: IRF-PIPA 3 was administered into the abdominal cavity of wild-type mice in an amount of 400 μg/mouse, and 3 hours after the administration, 250 μg/mouse Poly(I:C) was also administered into the abdominal cavity. Two hours after the administration of Poly(I:C), peritoneal macrophages were recovered, and the relative expression levels of Ifnb1, Il6, and Tnf genes were then analyzed by qRT-PCR.

IFN-β = IFN-β concentration in culture supernatant of LPS-stimulated Raw264.7 cells (ELISA); format: cell-based; settings: PIPA 1, 3 or 10 μM 24 h, then LPS 20 ng/mL 16 h
Protocol: Raw264.7 cells, a macrophage cell line, were seeded on a 96-well plate at a cell density of 2×10^4 cells/well, and were then culture for 8 hours for adhesion. Thereafter, IRF-PIPA was added to the cultured cells to final concentrations of 1, 3, or 10 μM. After completion of the culture for 24 hours, LPS was added to the cultured cells to a final concentration of 20 ng/mL, and the obtained mixture was then cultured for 16 hours, followed by the recovery of the supernatant. The supernatant was 2-fold diluted with 1% BSA-PBS, and the IFN-β concentration was then measured by ELISA.
Raw264.7 cells, a cell line, were purchased from RIKEN Cell Bank, and were then cultured using D-MEM (Nacalai Tesque) containing 10% FBS (SIGMA-ALDRICH) and Penicillin-Streptomycin mixed solution (Nacalai Tesque).
2×10^4 Raw264.7 cells were seeded on a plate, and were then treated with IRF-PIPA 1, IRF-PIPA 2, IRF-PIPA 3 or IRF-PIPA 4 for 24 hours. Thereafter, the cells were stimulated with LPS (Lipopolysaccharide, SIGMA-ALDRICH) for 16 hours, and the culture supernatant was then recovered. The concentration of cytokine in the culture supernatant was measured using ELISA kit (R&D SYSTEMS) according to the standard protocols. The culture supernatant was diluted with 1% BSA-PBS, as necessary, and was then analyzed. 2.5×10^5 Mouse peritoneal macrophages were seeded on a plate, and were then treated with IRF-PIPA 3 for 16 or 24 hours. Thereafter, the cells were stimulated with Poly(I:C) (InvivoGen) for 16 hours or with mRNA vaccine (Moderna) for 20 to 24 hours, and the culture supernatant was then recovered. The concentration of cytokine in the culture supernatant was measured using ELISA kit (R&D SYSTEMS) according to the same standard protocols. On the other hand, the concentration of cytokine in mouse plasma was measured by administering 400 μg/mouse IRF-PIPA 3 into the abdominal cavity of wild-type mice, then administering 250 μg of Poly(I:C) into the same abdominal cavity 24 hours after the IRF-PIPA 3 administration, then collecting blood further 2 hours after the Poly(I:C) administration, and then measuring the cytokine concentration in the plasma using ELISA kit (R&D SYSTEMS) according to standard protocols.

CC(=O)Nc1cn(C)c(C(=O)Nc2cc(C(=O)NCCC(=O)Nc3cc(C(=O)Nc4cn(C)c(C(=O)NCCC(=O)Nc5cn(C)c(C(=O)NCCCC(=O)Nc6cc(C(=O)Nc7cc(C(=O)Nc8cc(C(=O)NCCC(=O)Nc9cc(C(=O)Nc%10cc(C(=O)NCCC(=O)NCCCN(C)C)n(C)c%10)n(C)c9)n(C)c8)n(C)c7)n(C)c6)n5)n4)n(C)c3)n(C)c2)n1 [IRF-PIPA 3]
expression of IFN-β protein after LNP-mRNA (IFN-β, IL-6 and TNF-α [1]): strongly suppressed
expression of IL-6 protein after LNP-mRNA (IFN-β, IL-6 and TNF-α [1]): strongly suppressed
expression of TNF-α protein after LNP-mRNA (IFN-β, IL-6 and TNF-α [1]): strongly suppressed
Kd [2]: 22.7 nM
suppression of IFN-β production (IFN-β, IL-6 and TNF-α [3]): strongly suppresses IFN-β production in a concentration-dependent manner
suppression of IL-6 (IFN-β, IL-6 and TNF-α [3]): suppressed, although less strongly than IFN-β
suppression of TNF-α (IFN-β, IL-6 and TNF-α [3]): suppressed, although less strongly than IFN-β
expression level of Ifnb1 mRNA in vivo [4]: significantly suppressed
expression level of Il6 mRNA in vivo [4]: significantly suppressed
expression level of Tnf mRNA in vivo [4]: significantly suppressed
concentration dependence of suppression of IFN-β production (IFN-β): concentration-dependent suppression was observed
suppression of IFN-β production (IFN-β; ELISA of supernatant): strongest suppressive action among the 4 PIPAs
